Test [1] has as its system α-glucosidase. The test can be described thus: Fluorescence quenching-based binding study, α-glucosidase. Conditions: 298 K. The method, then:
(§1) Proteins were excited at 295 nm and the fluorescence spectra were recorded in the 300–450 nm range. The excitation and emission slit widths were set at 5 nm each. The concentration of proteins was fixed at 2 µM while the concentration of quenchers was varied. The inner filter effect contributed by quenchers was corrected using the following relation. (2) Fcorr=Fobs×e^(Aex+Aem)/2 where Fcorr is the corrected fluorescence intensity, Fobs is the observed fluorescence intensity, Aex is the absorbance at the excitation wavelength, and Aem is the absorbance at the emission wavelength.
(§2) Observing quenching in the fluorescence intensity of a protein in the presence of a ligand is a powerful tool in determining the binding parameters such as binding affinity and Gibb’s free energy of stabilization. Here, we have followed quenching in the fluorescence intensity of α-amylase and α-glucosidase in the presence of 3-oxolupenal and katononic acid at 298 K (Figure 4 and Figure 5). […] The binding parameters for the interaction were deduced using the following Stern–Volmer and modified Stern–Volmer equations. (3) Fo/F=1+KSV[Q]=1+kqτo[Q] (4) log(Fo−F/F)=logKa+nlog[Q] where, Fo and F are the fluorescence intensities of enzymes (α-amylase and α-glucosidase) in the absence and presence of ligands (3-oxolupenal and katononic acid); KSV is the Stern–Volmer constant; [Q] is the molar concentration of ligands (3-oxolupenal and katononic acid); kq is the bimolecular quenching rate constant; τo is the lifetime of enzymes’ fluorescence in the absence of ligands (=5.71 × 10^−9 s); Ka is the binding constant; n is the number of binding sites on the enzyme.

Another test has as its target T1, α-amylase (Sus scrofa, UniProt P00690).
T1 construct: purchased Sigma-Aldrich Co., St Louis, MO, USA
T1 sequence (P00690 16-511): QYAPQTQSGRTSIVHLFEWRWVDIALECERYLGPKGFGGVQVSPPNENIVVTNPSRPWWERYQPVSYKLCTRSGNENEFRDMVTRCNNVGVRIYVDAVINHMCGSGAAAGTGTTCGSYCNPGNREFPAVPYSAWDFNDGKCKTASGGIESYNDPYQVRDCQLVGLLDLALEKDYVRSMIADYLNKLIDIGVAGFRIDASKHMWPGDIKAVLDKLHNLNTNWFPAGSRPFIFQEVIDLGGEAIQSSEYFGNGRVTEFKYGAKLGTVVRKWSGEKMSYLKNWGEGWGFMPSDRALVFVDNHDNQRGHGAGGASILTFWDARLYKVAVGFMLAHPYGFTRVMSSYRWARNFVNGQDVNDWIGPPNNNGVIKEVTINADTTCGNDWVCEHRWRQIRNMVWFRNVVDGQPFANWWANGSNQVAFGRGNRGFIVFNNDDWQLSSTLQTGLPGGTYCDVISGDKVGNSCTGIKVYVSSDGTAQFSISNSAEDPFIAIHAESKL
Briefly: Fluorescence quenching-based binding study, α-amylase. The conditions noted are these: 298 K; for Number of Binding Sites n: pH 6.8. On the procedure: as §1, §2

Test [2] can be described thus: ABTS radical cation scavenging activity. Conditions: for ABTS Scavenging Activity (IC50 value): means of three experiments ± SD; for IC50: molar value in brackets. The method, then:
The ABTS radical scavenging activity of the samples was measured using the method of Re et al. (1999) with slight modification. ABTS solution in water (7 mM concentration) and an aqueous solution of potassium persulfate (2.45 mM) were prepared. The two solutions were mixed in the volume ratio 1:1 and stored in the dark 6 h at room temperature to produce the ABTS radical. The blue chromophore, which has a characteristic absorbance at 734 nm, was generated by reacting equal amount of ABTS and potassium persulfate solution. The ABTS stock solution was diluted with ethanol to an absorbance of 0.70 ± 0.02 at 734 nm and equilibrated at 30 °C. The crude extract, different fractions and isolated compounds at 100 µg/mL concentrations were mixed with 2.9 mL of diluted ABTS radical cation solution. The reaction was incubated at 30 °C for 20 min, and the absorbance at 734 nm was measured. The affinity of the test sample to quench the ABTS free radical was evaluated using Equation (1).

For test [3], the target named is α-glucosidase. Briefly: Inhibition assay for glucosidase activity (pNPG). The conditions noted are these: for Inhibition of α-Glucosidase (IC50 value): means of three experiments ± SD; for IC50: molar value in brackets. Type of test: biochemical. The method, then:
Glucosidase inhibition assay was carried out by following the method of Elya et al. (2008). The different fractions of the plant and compounds were prepared using 5% dimethyl sulfoxide (DMSO). […] Next, 50 μL of 5 mM p-nitrophenyl-α-D-glucopyranoside (pNPG) were added to the mixture to start the reaction. The reaction mixture was incubated at 37 °C for 60 min and stopped by adding 2.5 mL of 0.1 M Na2CO3. […] The mean values were obtained from triplicate experiments. The inhibition of glucosidase activity was calculated as percentage inhibition using Equation (1).

Test [4] in a line: DPPH radical scavenging activity. Conditions: for DPPH Scavenging Activity (IC50 value): means of three experiments ± SD; for IC50: molar value in brackets. On the procedure:
The DPPH radical scavenging method measured the antioxidant activity following the method of Braca et al. (2001) with slight modification. The crude extract, fractions, and compounds at 100 µg/mL concentrations were added to 3 mL of 0.004% DPPH solution. In the control sample, methanol was added in place of test extract/fractions/compounds. The DPPH is violet in color at room temperature and the color changes to yellow by either the process of hydrogen or electron donation by antioxidants. Absorbance was measured at 520 nm after 30 min incubation. The percent inhibition was calculated using Equation (1).
Background: Loss of DPPH colour is used to gauge radical scavenging.

For test [5], the target named is T2, Porcine α-amylase (pancreatic α-amylase) (Sus scrofa, UniProt P00690).
T2 construct: purchased Sigma-Aldrich Co., St Louis, MO, USA
T2 sequence (P00690 16-511): T1 sequence (P00690 16-511)
The test can be described thus: Inhibition assay for amylase activity (starch/DNS). The format is biochemical. The method, then: The different fractions of the plant and compounds were prepared using 5% dimethyl sulfoxide (DMSO). Fraction/compound (500 µL) of 100 µg/mL concentration (i.e., 50 µg) and 500 µL of 20 mM sodium phosphate buffer (pH 6.8) containing 20 µL of amylase (0.5 mg/mL) were incubated at 25 °C for 10 min. After pre-incubation, 500 µL of 1% starch solution in 0.02 M sodium phosphate buffer (pH 6.9) were added to each tube and incubated for 15 min. The reaction was stopped with 1.0 mL of dinitrosalicyclic acid. The test tubes were then incubated in a boiling water bath for 5 min and cooled to room temperature. The reaction mixture was then diluted after adding 10 mL distilled water, and the absorbance (Abs) was measured at 540 nm. Mean values were obtained from triplicate experiments. The control samples were prepared without any plant extracts/fractions/compounds. The percent inhibition of amylase activity was calculated using the following formula:(1) Inhibition(%)=(AbsControl−AbsCompound/AbsControl)×100 The mean values were obtained from triplicate experiments.

[6] abbreviates: pH 6.8, listed as Katononic Acid.
The mark [7] stands for this setting: pH 6.8, listed as katononic acid.
The mark [8] stands for this setting: means of three experiments ± SD.

Where “and” joins values, the source holds several entries; their conditions need not be identical. Equal values may be shown once.

Broadly, the IC50 is the point on the concentration scale where inhibition reaches its midpoint. Read a low IC50 as greater potency in that assay. Take `CC1(C)C(=O)CC[C@]2(C)[C@H]3CC=C4[C@@H]5C[C@](C)(C(=O)O)CC[C@]5(C)CC[C@@]4(C)[C@]3(C)CC[C@@H]12` [Katononic acid, katononic acid]: the “Bimolecular Quenching Rate Constant (kq)” value is 3.59e+13 M⁻¹ s⁻¹ in the test on α-glucosidase [1] (setting [6]), ~10^13 M^−1 s^−1 in the test with α-glucosidase [1] (setting [7]), 2.77e+13 M⁻¹ s⁻¹ at α-amylase (setting [6]) and ~10^13 M^−1 s^−1 at α-amylase (setting [7]). Besides, the “Stern–Volmer Constant (KSV)” value was 205000 M⁻¹ in the test with α-glucosidase [1] (setting [6]), ~10^5 M^−1 in the test on α-glucosidase [1] (setting [7]), 158000 M⁻¹ at α-amylase (setting [6]) and ~10^5 M^−1 on α-amylase (setting [7]). Moreover, on α-amylase, the “Number of Binding Sites n” value is on record as 0.7646. For the same molecule, the “ABTS Scavenging Activity (IC50 value)” value in test [2] stood at 82.7 ± 4.7 mg/L. For the same molecule, the 50% inhibitory concentration (IC50) was 182 µM in test [2]; 195 µM against α-glucosidase [3]; 192 µM in test [4]; 115 µM in test [5] (setting [8]); 119 µM and 115 µM in test [5] (molar value in brackets). Besides, the “Inhibition of α-Glucosidase (IC50 value)” value on α-glucosidase [3] is 88.6 ± 6.2 mg/L. Moreover, the “DPPH Scavenging Activity (IC50 value)” value in test [4] was 87.5 ± 5.4 mg/L.

For the molecule `Cc1cc(C(C)(C)C)c(O)c(C(C)(C)C)c1` [BHT, butylated hydroxytoluene, reference compound], in test [2], the “ABTS Scavenging Activity (IC50 value)” value came to 28.0 ± 1.9 mg/L and the IC50 was 127 µM. In test [4], the “DPPH Scavenging Activity (IC50 value)” value is 16.6 ± 6.2 mg/L and it took 75.3 µM to reach half-maximal inhibition (IC50).

In the case of `C=C(C=O)[C@@H]1CC[C@]2(C)CC[C@]3(C)[C@H](CC[C@@H]4[C@@]5(C)CCC(=O)C(C)(C)[C@@H]5CC[C@]43C)[C@@H]12` [3-oxolupenal], at α-amylase, the “Number of Binding Sites n” value came out at 1.0865. Moreover, the “ABTS Scavenging Activity (IC50 value)” value in test [2] came out at 84.2 ± 5.1 mg/L. Further, the IC50 in test [2] is 192 µM; against α-glucosidase [3], 142 µM; in test [4] it was 188 µM; in test [5] (setting [8]), 105 µM; in test [5] (molar value in brackets) it was 102 µM and 105 µM. The “Inhibition of α-Glucosidase (IC50 value)” value on α-glucosidase [3] is 62.3 ± 2.4 mg/L. Besides, the “DPPH Scavenging Activity (IC50 value)” value in test [4] stood at 82.7 ± 6.7 mg/L.

The values are drawn from article PMC7022278, “Alpha-Amylase and Alpha-Glucosidase Enzyme Inhibition and Antioxidant Potential of 3-Oxolupenal and Katononic Acid Isolated from Nuxia oppositifolia” (Biomolecules, 2019).
